Measurements from patent US20210215714A1, “COMPLEMENT ALTERNATIVE PATHWAY-ASSOCIATED NEPHROPATHY BIOMARKERS” (Achillion Pharmaceuticals, Inc., priority 2018, published 2021).

Key:
[1] = test system: C3; assay: Phase 2a study: C3 levels in serum; type: in vivo, human; conditions: 14-day treatment, patients A-F
Method: (§1) Systemic complement proteins were measured in serum and plasma including serum Ba, plasma Bb, serum C3, serum Factor D, serum C4, and % Fragment C3.
(§2) C3 levels in serum were measured using a quantitative sandwich enzyme immunoassay technique. A monoclonal antibody specific for human C3 was pre-coated onto a micro-assay plate. Standards and samples were pipetted into the wells and any C3 present was bound by the immobilized antibody. After washing away any unbound substances, an enzyme-linked polyclonal antibody specific for human C3 was added to the wells. Following a wash to remove any unbound antibody-enzyme reagent, a substrate solution was added to the wells and color develops in proportion to the amount of C3 bound in the initial step. The color development was stopped and the intensity of the color was measured. […] Patients E and F show similar results.

[2] = test system: C3b/iC3b; assay: Phase 2a study: % fragment C3; type: in vivo, human; conditions: 14-day treatment, patients A-F
Method: as §1, §2

In the case of CC(=O)c1nn(CC(=O)N2C[C@H](F)C[C@H]2C(=O)Nc2cccc(Br)n2)c2ccc(-c3cnc(C)nc3)cc12 [Compound 1, (2S,4R)-1-(2-(3-acetyl-5-(2-methylpyrimidin-5-yl)-1H-indazol-1-yl)acetyl)-N-(6-bromopyridin-2-yl)-4-fluoropyrrolidine-2-carboxamide], the “Serum C3” value [1] was “increased” and the “% fragment C3” value [2] was “reduced”.
